From publication PMC11855827, “High-Throughput Screening of Five Compound Libraries for Anthelmintic Activity and Toxicity Leads to the Discovery of Two Flavonoid Compounds” (International Journal of Molecular Sciences, 2025)
“And” between values parts separate entries of the source, which are not always exact repeats. Identical values can stand only once. Like-named read-outs stand apart in the source and are kept apart here.

Test system: C. elegans
[1] = Table S2, C. elegans SS assay, 110 μM, 0 h, averages of 4 data points
[2] = Table S2, C. elegans SS assay, 110 μM, 24 h, averages of 4 data points

Compound	Percentage of motility inhibition 0 h [1]	Percentage of motility inhibition 24 h [2] [%]	Percentage of motility inhibition 0 h (110 µM) [%]	Percentage of motility inhibition 24 h (110 µM) [%]
C/C=C1/[C@H](O[C@@H]2O[C@H](CO)[C@@H](O)[C@H](O)[C@H]2O)OC=C(C(=O)OC)[C@H]1CC(=O)OC[C@H]1O[C@@H](OCCc2ccc(OC(=O)C[C@@H]3C(C(=O)OC)=CO[C@@H](O[C@@H]4O[C@H](CO)[C@@H](O)[C@H](O)[C@H]4O)/C3=C/C)cc2)[C@H](O)[C@@H](O)[C@@H]1O [GL3]	0%	18	–	–
CC(C)OC(=O)[C@H](C)N[P@](=O)(CO[C@H](C)Cn1cnc2c(N)ncnc21)Oc1ccccc1.O=C(O)/C=C/C(=O)O [GS‐7340 (fumarate)]	20%	8	–	–
CC(C)OC(=O)[C@H](C)N[P@](=O)(CO[C@H](C)Cn1cnc2c(N)ncnc21)Oc1ccccc1.CC(C)OC(=O)[C@H](C)N[P@](=O)(CO[C@H](C)Cn1cnc2c(N)ncnc21)Oc1ccccc1.O=C(O)/C=C/C(=O)O [GS‐7340 (hemifumarate)]	21%	0	–	–
Br.COc1ccc2c3c1O[C@H]1C[C@@H](O)C=C[C@@]31CCN(C)C2 [Galanthamine (hydrobromide)]	2% and 0%	–	–	–
COc1ccc2c3c1O[C@H]1C[C@@H](O)C=C[C@@]31CC[N+](C)([O-])C2 (stereo partly drawn) [Galanthamine N‐Oxide]	3%	4	–	–
CC(C)=CCN=C(N)N.Cl [Galegine (hydrochloride)]	0%	0	–	–
O.O=C(O)c1cc(O)c(O)c(O)c1 [Gallic acid (hydrate)]	6%	7	–	–
CCCN1C[C@H](C)[C@@H](O)[C@](C)(O)[C@@H](CC)OC(=O)[C@H](C)[C@@H](O[C@H]2C[C@@](C)(OC)[C@@H](O)[C@H](C)O2)[C@H](C)[C@@H](O[C@@H]2O[C@H](C)C[C@H](N(C)C)[C@H]2O)[C@](C)(O)C[C@H]1C [Gamithromycin]	37%	44	–	–
C[C@H](CC(=O)C[C@](C)(O)[C@@H]1CC(=O)[C@@]2(C)C3=C(C(=O)C[C@]12C)[C@@]1(C)CC[C@H](O)C(C)(C)[C@@H]1C[C@@H]3O)C(=O)O [Ganoderic acid I]	0%	11	–	–
CC(CC(=O)CC(C)(O)C1CC(=O)C2(C)C3=C(C(=O)CC12C)C1(C)CCC(=O)C(C)(C)C1CC3O)C(=O)O (stereo not drawn) [Ganoderic acid N]	0%	0	–	–
CC(CC(=O)CC(C)[C@H]1CC(=O)C2(C)C3=C(C(=O)C(=O)C12C)C1(C)CCC(=O)C(C)(C)[C@@H]1CC3=O)C(=O)O (stereo partly drawn) [Ganosporeric acid A]	36%	9	–	–
CCNCc1nc2c(N)nc3ccccc3c2n1CC(C)(C)O.O=C(O)C(F)(F)F [Gardiquimod trifluoroacetate]	33%	0	–	–
CS(=O)(=O)O.C[C@H]1NCc2cc(-c3ccc4c(=O)c(C(=O)O)cn(C5CC5)c4c3OC(F)F)ccc21.O [Garenoxacin (Mesylate hydrate)]	61%	25	–	–
C/C=C1/CN2CCc3c([nH]c4ccccc34)[C@@H]2C[C@@H]1/C(=C/OC)C(=O)OC [Geissoschizine methyl ether]	0%	19	–	–
COC(=O)C1=CO[C@@H](O[C@@H]2O[C@H](CO[C@@H]3O[C@H](CO)[C@@H](O)[C@H](O)[C@H]3O)[C@@H](O)[C@H](O)[C@H]2O)[C@@H]2C(CO)=CC[C@H]12 [Genipin 1-β-D-gentiobioside]	0%	17	–	–
CC(C)=C1C/C=C(\C)CC/C=C(\C)CC1=O [Germacrone]	12%	9	–	–
CC1=C2[C@@H](OC1=O)[C@H](O)[C@]13[C@H]4C[C@@H](C(C)(C)C)[C@]15[C@@H](OC(=O)[C@@H]5O)O[C@@]23C(=O)O4 [Ginkgolide K]	0%	2	–	–
CC(C)=CCC[C@](C)(O[C@@H]1O[C@H](CO)[C@@H](O)[C@H](O)[C@H]1O)[C@H]1CC[C@]2(C)[C@@H]1[C@H](O)C[C@@H]1[C@@]3(C)CC[C@H](O)C(C)(C)[C@@H]3CC[C@]12C [Ginsenoside C-K]	4%	22	–	–
CC(C)=CCC[C@](C)(O[C@@H]1O[C@H](CO[C@@H]2OC[C@H](O[C@@H]3OC[C@@H](O)[C@H](O)[C@H]3O)[C@H](O)[C@H]2O)[C@@H](O)[C@H](O)[C@H]1O)[C@H]1CC[C@]2(C)[C@@H]1[C@H](O)C[C@@H]1[C@@]3(C)CC[C@H](O[C@@H]4O[C@H](CO)[C@@H](O)[C@H](O)[C@H]4O[C@@H]4O[C@H](CO)[C@@H](O)[C@H](O)[C@H]4O)C(C)(C)[C@@H]3CC[C@]12C [Ginsenoside Ra1]	0%	0	–	–

Compound	Percentage of motility inhibition 0 h [1]	Percentage of motility inhibition 24 h [2] [%]	Percentage of motility inhibition 0 h (110 µM) [%]	Percentage of motility inhibition 24 h (110 µM) [%]
C=C(CCC=C(C)C)[C@H]1CC[C@]2(C)[C@@H]1[C@H](O)C[C@@H]1[C@@]3(C)CC[C@H](O)C(C)(C)[C@@H]3[C@@H](O[C@@H]3O[C@H](CO)[C@@H](O)[C@H](O)[C@H]3O[C@@H]3O[C@@H](C)[C@H](O)[C@@H](O)[C@H]3O)C[C@]12C [Ginsenoside Rg6]	1%	4	–	–
C=C(CCC=C(C)C)[C@H]1CC[C@]2(C)[C@@H]1[C@H](O)C[C@@H]1[C@@]3(C)CC[C@H](O[C@@H]4O[C@H](CO)[C@@H](O)[C@H](O)[C@H]4O[C@@H]4O[C@H](CO)[C@@H](O)[C@H](O)[C@H]4O)C(C)(C)[C@@H]3CC[C@]12C [Ginsenoside Rk1]	4%	0	–	–
C=C(CCC=C(C)C)[C@H]1CC[C@]2(C)[C@@H]1[C@H](O)C[C@@H]1[C@@]3(C)CC[C@H](O)C(C)(C)[C@@H]3[C@@H](O[C@@H]3O[C@H](CO)[C@@H](O)[C@H](O)[C@H]3O)C[C@]12C [Ginsenoside Rk3]	0%	19	–	–
CC1(C)CC[C@]2(C(=O)O[C@@H]3O[C@H](CO)[C@@H](O)[C@H](O)[C@H]3O)CC[C@]3(C)C(=CC[C@@H]4[C@@]5(C)CC[C@H](O[C@@H]6O[C@H](C(=O)O)[C@@H](O)[C@H](O)[C@H]6O[C@@H]6O[C@H](CO)[C@@H](O)[C@H](O)[C@H]6O)C(C)(C)[C@@H]5CC[C@]43C)[C@@H]2C1 [Ginsenoside Ro]	1%	0	–	–
O=C([O-])[C@H](O)[C@@H](O)[C@H](O)[C@H](O)CO.[Na+] [Gluconate (sodium)]	15%	3	–	–
C[S+]([O-])CCCC/C(=N\OS(=O)(=O)O)S[C@@H]1O[C@H](CO)[C@@H](O)[C@H](O)[C@H]1O (stereo partly drawn) [Glucoraphanin]	12%	0	–	–
NCC(=O)O [Glycine]	–	–	32	13
COc1cc2c(=O)c(-c3ccc(O)cc3)coc2cc1O[C@@H]1O[C@H](CO)[C@@H](O)[C@H](O)[C@H]1O [Glycitin]	30%	4	–	–
C[C@H](CCC(=O)NCC(=O)[O-])[C@H]1CC[C@H]2[C@@H]3[C@H](O)C[C@@H]4C[C@H](O)CC[C@]4(C)[C@H]3C[C@H](O)[C@]12C.[Na+] [Glycocholic acid (sodium)]	0%	0	–	–
O=C(O)CO [Glycolic acid]	5%	6	–	–
C[C@H](CCC(=O)NCC(=O)O)[C@H]1CC[C@H]2[C@@H]3CC[C@@H]4C[C@H](OS(=O)(=O)O)CC[C@]4(C)[C@H]3CC[C@]12C [Glycolithocholic acid 3-sulfate]	13%	33	–	–
CC1(C)[C@@H](O[C@@H]2O[C@H](C(=O)O)[C@@H](O)[C@H](O)[C@H]2O)CC[C@]2(C)[C@H]3C(=O)C=C4[C@@H]5C[C@@](C)(C(=O)O)CC[C@]5(C)CC[C@@]4(C)[C@]3(C)CC[C@@H]12 [Glycyrrhetic acid 3-O-β-D-glucuronide]	2%	22	–	–
CC(=O)O.Cc1cc2c(C(C)C)c(O)c(O)c(C=O)c2c(O)c1-c1c(C)cc2c(C(C)C)c(O)c(O)c(C=O)c2c1O [Gossypol (acetic acid)]	0%	7	–	–
COc1cc2c(cc1O)CC[n+]1cc3c4c(ccc3cc1-2)OCO4 [Groenlandicine]	0%	0	–	–
O=c1c(O[C@@H]2OC[C@H](O)[C@H](O)[C@H]2O)c(-c2ccc(O)c(O)c2)oc2cc(O)cc(O)c12 [Guaijaverin]	0%	25	–	–
C=C1CC23CC4[C@@H]5[C@@]6(C)C[C@H](OC(C)=O)C[C@]57C(N4C6)[C@@]2(O)C(OC(C)=O)[C@H]1[C@@H](O)[C@H]37 (stereo partly drawn) [Guanfu base A]	0%	0	–	–
COC(=O)C1=CCCNC1.Cl [Guvacoline (hydrochloride)]	0%	0	–	–
CC1(C)C[C@H]2C3=CC[C@@H]4[C@@]5(C)CC[C@H](O)[C@@](C)(CO)[C@@H]5CC[C@@]4(C)[C@]3(C)C[C@H](O)[C@@]2(CO)[C@@H](O)[C@@H]1O [Gymnemagenin]	0%	52	–	–
C/C=C(\C)C(=O)O[C@H]1[C@H](O)[C@]2(COC(C)=O)[C@@H](O)C[C@]3(C)C(=CC[C@@H]4[C@@]5(C)CC[C@H](O[C@@H]6O[C@H](C(=O)O)[C@@H](O)[C@H](O)[C@H]6O)[C@@](C)(CO)[C@@H]5CC[C@]43C)[C@@H]2CC1(C)C [Gymnemic acid I]	20%	0	–	–
